Data from paper PMC9030254, “Target Hopping from Protein Kinases to PXR: Identification of Small-Molecule Protein Kinase Inhibitors as Selective Modulators of Pregnane X Receptor from TüKIC Library” (Cells, 2022).

Experiments:
Assay in all cases: Kinase profiling
Assay type in all cases: biochemical
[1] = target: T1, CDK17/p35NCK (Homo sapiens, UniProt Q00537)
T1 construct: purchased ProQinase (Freiburg, Germany)
Experimental: (§1) The analysis was performed by ProQinase (Freiburg, Germany).

[2] = target: T2, DYRK2 (Homo sapiens, UniProt Q92630)
T2 construct: purchased ProQinase (Freiburg, Germany)
T2 sequence (Q92630 1-601): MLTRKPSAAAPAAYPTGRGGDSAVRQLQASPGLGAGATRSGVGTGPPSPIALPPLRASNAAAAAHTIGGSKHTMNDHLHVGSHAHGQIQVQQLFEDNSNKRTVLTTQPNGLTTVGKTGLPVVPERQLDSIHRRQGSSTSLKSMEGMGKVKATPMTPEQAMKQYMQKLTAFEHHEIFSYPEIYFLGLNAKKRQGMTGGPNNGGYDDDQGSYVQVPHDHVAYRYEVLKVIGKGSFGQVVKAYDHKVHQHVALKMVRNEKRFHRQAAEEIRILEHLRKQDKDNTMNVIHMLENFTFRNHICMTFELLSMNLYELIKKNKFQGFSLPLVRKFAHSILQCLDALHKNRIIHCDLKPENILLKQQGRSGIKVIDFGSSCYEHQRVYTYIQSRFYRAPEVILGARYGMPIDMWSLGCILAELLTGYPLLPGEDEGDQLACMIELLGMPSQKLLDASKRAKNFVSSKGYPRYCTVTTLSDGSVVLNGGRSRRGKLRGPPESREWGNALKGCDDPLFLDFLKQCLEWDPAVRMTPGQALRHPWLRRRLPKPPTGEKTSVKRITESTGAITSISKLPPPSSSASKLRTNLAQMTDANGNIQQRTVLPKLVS
Experimental: as §1

[3] = target: T3, EPHB3 (Homo sapiens, UniProt P54753)
T3 construct: purchased ProQinase (Freiburg, Germany)
T3 sequence (P54753 34-998): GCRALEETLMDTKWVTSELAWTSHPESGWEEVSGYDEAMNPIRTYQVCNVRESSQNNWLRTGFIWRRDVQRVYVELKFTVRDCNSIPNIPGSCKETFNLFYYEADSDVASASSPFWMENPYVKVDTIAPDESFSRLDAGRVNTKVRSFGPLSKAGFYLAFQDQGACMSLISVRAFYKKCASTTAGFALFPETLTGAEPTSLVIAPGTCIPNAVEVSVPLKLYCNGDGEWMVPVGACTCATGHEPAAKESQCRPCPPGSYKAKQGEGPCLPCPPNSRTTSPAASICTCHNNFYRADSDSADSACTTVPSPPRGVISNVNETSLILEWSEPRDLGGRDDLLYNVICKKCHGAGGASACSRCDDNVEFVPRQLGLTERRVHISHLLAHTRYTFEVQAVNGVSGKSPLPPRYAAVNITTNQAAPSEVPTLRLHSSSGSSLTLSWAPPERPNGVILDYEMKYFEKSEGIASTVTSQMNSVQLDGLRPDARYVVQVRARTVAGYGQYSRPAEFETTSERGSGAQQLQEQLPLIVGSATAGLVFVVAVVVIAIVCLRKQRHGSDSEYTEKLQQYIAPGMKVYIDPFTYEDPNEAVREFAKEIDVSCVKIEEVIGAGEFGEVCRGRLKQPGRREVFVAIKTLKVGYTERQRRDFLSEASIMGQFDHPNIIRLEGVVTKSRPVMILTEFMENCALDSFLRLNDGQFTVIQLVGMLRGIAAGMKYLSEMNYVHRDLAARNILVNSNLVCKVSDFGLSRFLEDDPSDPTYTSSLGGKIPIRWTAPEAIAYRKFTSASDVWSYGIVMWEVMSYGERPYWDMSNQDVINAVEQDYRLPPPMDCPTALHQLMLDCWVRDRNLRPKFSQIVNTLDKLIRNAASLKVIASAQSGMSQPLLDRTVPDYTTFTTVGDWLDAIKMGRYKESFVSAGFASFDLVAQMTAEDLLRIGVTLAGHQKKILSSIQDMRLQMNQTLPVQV
Experimental: as §1

[4] = target: T4, RIPK5 (Homo sapiens, UniProt Q6XUX3)
T4 construct: purchased ProQinase (Freiburg, Germany)
T4 sequence (Q6XUX3 1-929): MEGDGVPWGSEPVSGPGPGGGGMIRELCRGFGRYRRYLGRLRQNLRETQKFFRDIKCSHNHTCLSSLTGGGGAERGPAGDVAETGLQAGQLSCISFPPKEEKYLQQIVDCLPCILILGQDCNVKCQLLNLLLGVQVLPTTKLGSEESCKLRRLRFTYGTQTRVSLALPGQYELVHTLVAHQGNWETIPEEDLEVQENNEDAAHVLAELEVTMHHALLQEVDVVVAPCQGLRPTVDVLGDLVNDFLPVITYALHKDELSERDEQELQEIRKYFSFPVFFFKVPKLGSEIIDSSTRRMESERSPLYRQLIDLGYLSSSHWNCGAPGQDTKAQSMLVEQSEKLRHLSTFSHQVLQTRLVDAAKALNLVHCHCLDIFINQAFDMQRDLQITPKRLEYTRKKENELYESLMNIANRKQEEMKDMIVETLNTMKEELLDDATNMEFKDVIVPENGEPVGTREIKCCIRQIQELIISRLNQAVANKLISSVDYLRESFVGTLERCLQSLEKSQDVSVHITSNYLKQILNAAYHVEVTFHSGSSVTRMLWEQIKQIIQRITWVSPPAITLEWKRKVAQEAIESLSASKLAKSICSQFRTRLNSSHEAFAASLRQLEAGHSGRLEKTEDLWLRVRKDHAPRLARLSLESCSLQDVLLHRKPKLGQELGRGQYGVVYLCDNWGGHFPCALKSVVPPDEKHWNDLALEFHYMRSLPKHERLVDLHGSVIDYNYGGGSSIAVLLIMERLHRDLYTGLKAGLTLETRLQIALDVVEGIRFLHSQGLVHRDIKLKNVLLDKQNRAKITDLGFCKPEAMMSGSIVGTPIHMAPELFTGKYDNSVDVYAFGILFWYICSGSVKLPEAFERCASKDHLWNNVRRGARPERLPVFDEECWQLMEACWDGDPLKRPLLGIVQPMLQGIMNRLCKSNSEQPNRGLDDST
Experimental: as §1

T1 sequence (Q00537 whole entry): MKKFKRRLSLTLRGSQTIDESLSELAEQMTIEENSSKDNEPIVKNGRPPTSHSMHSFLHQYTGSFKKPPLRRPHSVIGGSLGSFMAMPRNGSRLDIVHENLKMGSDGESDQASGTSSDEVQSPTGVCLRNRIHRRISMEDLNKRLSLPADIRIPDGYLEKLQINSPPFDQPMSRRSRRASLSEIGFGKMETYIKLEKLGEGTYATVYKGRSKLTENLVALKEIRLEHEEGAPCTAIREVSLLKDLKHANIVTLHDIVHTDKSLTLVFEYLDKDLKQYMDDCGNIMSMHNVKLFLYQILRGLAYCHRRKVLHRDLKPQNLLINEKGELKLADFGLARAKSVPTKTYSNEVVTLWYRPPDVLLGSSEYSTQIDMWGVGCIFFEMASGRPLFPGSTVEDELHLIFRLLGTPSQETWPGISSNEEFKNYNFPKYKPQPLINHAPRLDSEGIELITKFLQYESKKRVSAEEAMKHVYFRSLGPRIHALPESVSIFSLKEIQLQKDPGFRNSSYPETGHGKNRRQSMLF
T1 sequence (Q15078 whole entry partner): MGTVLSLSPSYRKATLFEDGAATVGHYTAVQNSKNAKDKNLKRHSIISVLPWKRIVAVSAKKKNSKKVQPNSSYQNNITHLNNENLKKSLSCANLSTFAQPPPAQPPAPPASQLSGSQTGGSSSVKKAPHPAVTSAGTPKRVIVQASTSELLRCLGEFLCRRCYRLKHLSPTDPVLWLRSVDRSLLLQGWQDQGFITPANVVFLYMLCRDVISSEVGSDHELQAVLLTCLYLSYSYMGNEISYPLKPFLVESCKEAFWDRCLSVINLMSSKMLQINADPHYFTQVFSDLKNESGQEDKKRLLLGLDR

Row | SMILES | Residual activity ([1]; 1.0E-05 M) | Residual activity ([1]; 1.0E-06 M) | Residual activity ([2]; 1.0E-05 M) | Residual activity ([2]; 1.0E-06 M) | Residual activity ([3]; 1.0E-05 M) | Residual activity ([3]; 1.0E-06 M) | Residual activity ([4]; 1.0E-05 M) | Residual activity ([4]; 1.0E-06 M)
1 | O=C(Cc1ccccc1)Nc1ccc(F)c(Nc2ccc3c(c2)CCCCC3=O)c1 [Compound 100] | 84 % of control | 102 % of control | 91 % of control | 89 % of control | 69 % of control | 100 % of control | 99 % of control | 100 % of control
2 | O=C(Nc1ccc(F)c(Nc2ccc3c(c2)CCCCC3=O)c1)c1cccc(F)c1 [Compound 109] | 92 % of control | 109 % of control | 92 % of control | 98 % of control | 85 % of control | 100 % of control | 100 % of control | 101 % of control
